Two compounds from PMC9055924 (RSC Advances, 2020) can be followed below.

Structures are written as SMILES.

The target of the assay is T1, TLP-1 (Prunus mume, UniProt A0ABM0NSQ8).
T1 sequence (A0ABM0NSQ8 27-249): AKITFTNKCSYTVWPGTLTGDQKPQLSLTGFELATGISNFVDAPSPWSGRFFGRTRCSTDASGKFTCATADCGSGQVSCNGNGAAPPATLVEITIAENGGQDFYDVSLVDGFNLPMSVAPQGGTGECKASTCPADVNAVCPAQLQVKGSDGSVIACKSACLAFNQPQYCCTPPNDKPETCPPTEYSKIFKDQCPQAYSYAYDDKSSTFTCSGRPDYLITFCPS
The assay can be described thus: catechol oxidation, absorbance at […] nm. Format: biochemical. Particulars: read-out: Relative activity (%) / 10 (mM).

Regarding `CCCCCCc1ccc(O)cc1O` [4-Hexylresorcinol], the activity at 10000 µM was 15.6 ± 0.44%.
To `NC(=O)CC[C@H](N)C(=O)O` [L-Glutamine] belongs 83.5 ± 2.24%.
